In US11524968B2, “Heterocyclic compound as a protein kinase inhibitor” (HK inno.N Corporation, priority 2017, dated 2022):
pIC50: −log10 of the molar value.

Target: JAK1 (Homo sapiens (Human), UniProt P23458)
Experiment: Analysis of JAK1 activity inhibition ability (ADP-Glo Kinase Assay)
Type: biochemical
Settings: JAK1 enzyme, ADP-Glo luminescence, ATP 250 uM, IRS-itide substrate, 30° C. 40 minutes; read-out: IC50
Outline: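 JAK1 enzyme, IRS-itide substrate (40 ng/mL) and 250 uM ATP, both as prepared in kinase buffer (Tris-HCl pH 7.5, MgCl2, BSA, DTT), reacted with compound 40 min at 30 °C. ADP formed was detected by ADP-Glo luminescence; IC50 is the concentration giving 50% inhibition versus control.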

Sequence of JAK1 (P23458 whole entry): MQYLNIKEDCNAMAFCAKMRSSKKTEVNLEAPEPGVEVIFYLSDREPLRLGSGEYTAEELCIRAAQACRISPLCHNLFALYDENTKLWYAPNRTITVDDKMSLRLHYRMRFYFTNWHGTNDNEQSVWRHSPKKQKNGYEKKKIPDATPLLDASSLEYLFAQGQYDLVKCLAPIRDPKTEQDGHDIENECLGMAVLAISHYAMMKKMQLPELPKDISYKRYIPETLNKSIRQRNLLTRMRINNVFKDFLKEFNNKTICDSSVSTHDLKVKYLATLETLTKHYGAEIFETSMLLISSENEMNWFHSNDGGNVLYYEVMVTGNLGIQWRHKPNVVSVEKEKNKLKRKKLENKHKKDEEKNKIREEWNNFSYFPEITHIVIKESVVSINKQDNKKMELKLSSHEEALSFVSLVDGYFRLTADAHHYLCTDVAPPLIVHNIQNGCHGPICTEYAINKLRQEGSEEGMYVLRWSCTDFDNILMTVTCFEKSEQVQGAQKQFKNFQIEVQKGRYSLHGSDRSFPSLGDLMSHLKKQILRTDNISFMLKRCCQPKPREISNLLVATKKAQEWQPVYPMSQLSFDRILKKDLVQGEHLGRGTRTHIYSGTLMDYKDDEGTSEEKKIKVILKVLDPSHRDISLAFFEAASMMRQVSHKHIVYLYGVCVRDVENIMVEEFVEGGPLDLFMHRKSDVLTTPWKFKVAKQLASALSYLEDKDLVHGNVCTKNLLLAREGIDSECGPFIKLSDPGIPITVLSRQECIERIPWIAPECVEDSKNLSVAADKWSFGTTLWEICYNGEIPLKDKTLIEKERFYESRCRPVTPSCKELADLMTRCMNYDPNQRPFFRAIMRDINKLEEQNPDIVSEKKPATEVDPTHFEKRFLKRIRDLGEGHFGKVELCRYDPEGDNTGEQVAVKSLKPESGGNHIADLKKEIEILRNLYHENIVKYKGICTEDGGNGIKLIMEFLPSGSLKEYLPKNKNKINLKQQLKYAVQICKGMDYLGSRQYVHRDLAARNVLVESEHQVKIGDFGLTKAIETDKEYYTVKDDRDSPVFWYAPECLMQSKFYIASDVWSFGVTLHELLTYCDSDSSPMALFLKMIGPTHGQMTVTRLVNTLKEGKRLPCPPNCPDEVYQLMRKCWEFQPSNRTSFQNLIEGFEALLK

pIC50	Compound
< 6.70	O=C(Nc1cc(-c2ccc(OS(=O)(=O)C3CCCCC3)cc2)c2cc[nH]c2n1)C1CC1 [Example 634, 4-(6-(cyclopropanecarboxamido)-1H-pyrrolo[2,3-b]pyridin-4-yl)phenyl cyclohexanesulfonate]
6.70 to 7.70	O=C(Nc1cc(-c2ccc(OS(=O)(=O)CCCF)cc2)c2cc[nH]c2n1)C1CC1 [Example 635, 4-(6-(cyclopropanecarboxamido)-1H-pyrrolo[2,3-b]pyridin-4-yl)phenyl 3-fluoropropane-1-sulfonate]
> 7.70	C=CCS(=O)(=O)Oc1ccc(-c2cc(NC(=O)C3CC3)nc3[nH]ccc23)cc1 [Example 636, 4-(6-(cyclopropanecarboxamido)-1H-pyrrolo[2,3-b]pyridin-4-yl)phenyl prop-2-ene-1-sulfonate]
< 6.70	O=C(Nc1cc(-c2ccc(OS(=O)(=O)CC3CCCCC3)cc2)c2cc[nH]c2n1)C1CC1 [Example 637, 4-(6-(cyclopropanecarboxamido)-1H-pyrrolo[2,3-b]pyridin-4-yl)phenyl cyclohexylmethanesulfonate]
6.70 to 7.70	O=C(Nc1cc(-c2ccc(OS(=O)(=O)CC3CCOC3)cc2)c2cc[nH]c2n1)C1CC1 (centres unmarked) [Example 638, 4-(6-(cyclopropanecarboxamido)-1H-pyrrolo[2,3-b]pyridin-4-yl)phenyl (tetrahydrofuran-3-yl)methanesulfonate]
6.70 to 7.70	N#CCCCS(=O)(=O)Oc1ccc(-c2cc(NC(=O)C3CC3)nc3[nH]ccc23)cc1 [Example 639, 4-(6-(cyclopropanecarboxamido)-1H-pyrrolo[2,3-b]pyridin-4-yl)phenyl 3-cyanopropane-1-sulfonate]
6.70 to 7.70	O=C(Nc1cc(-c2ccc(OCCN3CCOCC3)cc2)c2cc[nH]c2n1)C1CC1 [Example 642, N-(4-(4-(2-morpholinoethoxy)phenyl)-1H-pyrrolo[2,3-b]pyridin-6-yl)cyclopropanecarboxamide]

The next lines start with the compound.

Compound	pIC50
N#CCCCn1ccc2c(-c3ccc(OS(=O)(=O)CCCC#N)cc3)cc(NC(=O)C3CC3)nc21 [Example 640, 4-(1-(3-cyanopropyl)-6-(cyclopropanecarboxamido)-1H-pyrrolo[2,3-b]pyridin-4-yl)phenyl 3-cyanopropane-1-sulfonate]	< 6.70
O=C(Nc1cc(-c2ccc(OCc3ccc(F)cc3)cc2)c2cc[nH]c2n1)C1CC1 [Example 641, N-(4-(4-((4-fluorobenzyl)oxy)phenyl)-1H-pyrrolo[2,3-b]pyridin-6-yl)cyclopropanecarboxamide]	< 6.70
CCCCOc1ccc(-c2cc(NC(=O)C3CC3)nc3[nH]ccc23)cc1 [Example 643, N-(4-(4-butoxyphenyl)-1H-pyrrolo[2,3-b]pyridin-6-yl)cyclopropanecarboxamide]	< 6.70
N#Cc1ccc(COc2ccc(-c3nc(NC(=O)C4CC4)nc4[nH]cnc34)cc2)cn1 [Example 644, N-(6-(4-((6-cyanopyridin-3-yl)methoxy)phenyl)-9H-purin-2-yl)cyclopropanecarboxamide]	< 6.70
CCS(=O)(=O)NC1CCC(c2cc(NC(=O)C3CC3)nc3[nH]ccc23)CC1 (centres unmarked) [Example 645, N-(4-(4-(ethylsulfonamido)cyclohexyl)-1H-pyrrolo[2,3-b]pyridin-6-yl)cyclopropanecarboxamide]	6.70 to 7.70
CCS(=O)(=O)N1C2CCC1CC(c1cc(NC(=O)C3CC3)nc3[nH]ccc13)C2 (centres unmarked) [Example 646, N-(4-(8-(ethylsulfonyl)-8-azabicyclo[3.2.1]octan-3-yl)-1H-pyrrolo[2,3-b]pyridin-6-yl)cyclopropanecarboxamide]	< 6.70
O=C(Nc1cc(C2CC3CCC(C2)N3S(=O)(=O)C2CC2)c2cc[nH]c2n1)C1CC1 (centres unmarked) [Example 647, N-(4-(8-(cyclopropylsulfonyl)-8-azabicyclo[3.2.1]octan-3-yl)-1H-pyrrolo[2,3-b]pyridin-6-yl)cyclopropanecarboxamide]	< 6.70
